Laboratory results: ChEMBL document CHEMBL6178014, “Discovery and Administration Optimization of Novel Selective CDK9 Inhibitor, 1-7a-B1, for Improved Pharmacokinetics and Antitumor Efficacy In Vivo” (J Med Chem, 2025)
Activity calls are given as the source filed them. No cut-off for these calls is given here.

Tests used:
[1] = target: CDK2/Cyclin A2 (Homo sapiens, UniProt P24941); assay: Inhibition of CDK2/cyclA2 (unknown origin) by ADP-Glo assay; assay type: protein-complex assay
[2] = system: HCT-116; assay: Antitumor activity against human HCT-116 cells xenografted in female BALB/c nu-nu mouse assessed as tumor growth inhibition at 20 mg/kg, po as submicron emulsion administered once daily for 3 weeks by vernier caliper analysis; assay type: functional, organism-based
[3] = Toxicity in female BALB/c nu-nu mouse xenografted with human HCT-116 cells assessed as body weight loss at 40 mg/kg, po administered once daily for 3 weeks; assay type: organism-based; conditions: in vivo, 504 h
[4] = system: HCT-116; assay: Antiproliferative activity against human HCT-116 cells assessed as reduction in colony formation incubated for 14 days by crystal violet staining based analysis; assay type: functional, cell-based; conditions: dose 50-400 nM, time 14.0 day
[5] = system: HCT-116; assay: Antitumor activity against human HCT-116 cells xenografted in female BALB/c nu-nu mouse assessed as downregulation of Mcl-1 mRNA expression at 40 mg/kg, po incubated for 48 hrs by qRT-PCR analysis; assay type: functional, organism-based
[6] = system: HCT-116; assay: Antitumor activity against human HCT-116 cells xenografted in female BALB/c nu-nu mouse assessed as reduction in Ki67 positive cells at 20 mg/kg, po as submicron emulsion by staining based analysis; assay type: functional, organism-based
[7] = Toxicity in female BALB/c nu-nu mouse xenografted with human HCT-116 cells assessed as histopathological changes in heart at 20 mg/kg, po as submicron emulsion administered once daily for 3 weeks by H and E staining based analysis; assay type: organism-based; conditions: in vivo, 504 h
[8] = system: HCT-116; assay: Antitumor activity against human HCT-116 cells xenografted in female BALB/c nu-nu mouse assessed as tumor growth inhibition at 40 mg/kg, po administered once daily for 3 weeks by vernier caliper analysis; assay type: functional, organism-based
[9] = system: HCT-116; assay: Downregulation of c-Myc level in human HCT-116 cells at 200 to 400 nM incubated for 48 hrs by Western blot analysis; assay type: functional, cell-based; conditions: dose 200-400 nM
[10] = Volume of distribution in Sprague-Dawley rat at 30 mg/kg, po measured after 24 hrs by LC-MS/MS analysis; assay type: ADME, organism-based; conditions: in vivo
[11] = system: HCT-116; assay: Antiproliferative activity against human HCT-116 cells assessed as inhibition of cell growth incubated for 48 hrs by CCK8 assay; assay type: functional
[12] = system: HepG2; assay: Cytotoxicity against human HepG2 cells assessed as cell viability incubated for 48 hrs by CCK8 assay; assay type: functional, cell-based
[13] = Tmax in Sprague-Dawley rat at 30 mg/kg, po as submicron emulsion measured after 24 hrs by LC-MS/MS analysis; assay type: ADME, organism-based; conditions: in vivo
[14] = target: E3 ubiquitin-protein ligase Mdm2 (Homo sapiens) (UniProt Q00987); assay: Inhibition of MDM2 phosphorylation at ser166 residue in human HCT-116 cells at 100 to 400 nM incubated for 48 hrs by Western blot analysis; assay type: cell-based; conditions: dose 100-400 nM
[15] = target: Cellular tumor antigen p53 (Homo sapiens) (UniProt P04637); assay: Induction of stabilization of wild type p53 in human HCT-116 cells at 100 to 400 nM incubated for 48 hrs by Western blot analysis; assay type: cell-based; conditions: dose 100-400 nM
[16] = Toxicity in female BALB/c nu-nu mouse xenografted with human HCT-116 cells assessed as histopathological changes in spleen at 40 mg/kg, po administered once daily for 3 weeks by H and E staining based analysis; assay type: organism-based; conditions: in vivo, 504 h
[17] = target: CYP2C9 (Homo sapiens, UniProt P11712); assay: Inhibition of CYP2C9 in human liver microsome at 10 uM pre-incubated with compound for 10 mins in presence of NADPH-regenerating system by LC-MS/MS analysis relative to control; assay type: ADME; conditions: liver microsomes
[18] = Toxicity in female BALB/c nu-nu mouse xenografted with human HCT-116 cells assessed as histopathological changes in spleen at 20 mg/kg, po as submicron emulsion administered once daily for 3 weeks by H and E staining based analysis; assay type: organism-based; conditions: in vivo, 504 h
[19] = target: CYP3A4 (Homo sapiens, UniProt P08684); assay: Inhibition of CYP3A4 in human liver microsome at 10 uM pre-incubated with compound for 10 mins in presence of NADPH-regenerating system by LC-MS/MS analysis relative to control; assay type: ADME; conditions: liver microsomes
[20] = target: Cyclin-dependent kinase 9 (Homo sapiens) (UniProt P50750); assay: Inhibition of CDK9 in human HCT-116 cells assessed as reduction in phosphorylation of RNA polymerase II at Ser2 residue at 100 to 400 nM incubated for 48 hrs by Western blot analysis; assay type: cell-based; conditions: dose 100-400 nM
[21] = system: HCT-116; assay: Downregulation of Mcl-1 level in human HCT-116 cells at 200 to 400 nM incubated for 48 hrs by Western blot analysis; assay type: functional, cell-based; conditions: dose 200-400 nM
[22] = AUC (0 to infinity) in Sprague-Dawley rat at 30 mg/kg, po measured after 24 hrs by LC-MS/MS analysis; assay type: ADME, organism-based; conditions: in vivo
[23] = MRT (infinity) in Sprague-Dawley rat at 30 mg/kg, po measured after 24 hrs by LC-MS/MS analysis; assay type: ADME, organism-based; conditions: in vivo
[24] = Toxicity in female BALB/c nu-nu mouse xenografted with human HCT-116 cells assessed as histopathological changes in heart at 40 mg/kg, po administered once daily for 3 weeks by H and E staining based analysis; assay type: organism-based; conditions: in vivo, 504 h
[25] = target: CYP2C19 (Homo sapiens, UniProt P33261); assay: Inhibition of CYP2C19 in human liver microsome at 10 uM pre-incubated with compound for 10 mins in presence of NADPH-regenerating system by LC-MS/MS analysis relative to control; assay type: ADME; conditions: liver microsomes
[26] = target: CDK9/cyclin T1 (Homo sapiens, UniProt P50750); assay: Binding affinity to CDK9/cyclin T1 (unknown origin) assessed as dissociation constant by SPR analysis; assay type: protein-complex assay
[27] = system: Mus musculus; assay: In vivo inhibition of CDK9/cyclinT1 in female BALB/c nu-nu mouse xenografted with human HCT-116 cells assessed as inhibition of phosphorylation of RNA polymerase II at Ser 2 residue at 40 mg/kg, po incubated for 48 hrs by Western blot analysis; assay type: functional, organism-based
[28] = Plasma protein binding in human at 100 uM measured up to 120 mins by LC-MS/MS analysis relative to control; assay type: ADME, cell-free; conditions: read-out: PPB (converted)
[29] = system: HCT-116; assay: Antitumor activity against human HCT-116 cells xenografted in female BALB/c nu-nu mouse assessed as downregulation of c-Myc mRNA expression at 40 mg/kg, po incubated for 48 hrs by qRT-PCR analysis; assay type: functional, organism-based
[30] = system: HCT-116; assay: Antitumor activity against human HCT-116 cells xenografted in female BALB/c nu-nu mouse assessed as reduction in Ki67 positive cells at 40 mg/kg, po by staining based analysis; assay type: functional, organism-based
[31] = system: NCI-H226; assay: Cytotoxicity against human NCI-H226 cells assessed as cell viability incubated for 48 hrs by CCK8 assay; assay type: functional, cell-based
[32] = system: HCT-116; assay: Antitumor activity against human HCT-116 cells xenografted in female BALB/c nu-nu mouse assessed as increase in PARP cleavage at 40 mg/kg, po incubated for 48 hrs by Western blot analysis; assay type: functional, organism-based
[33] = Clearance in Sprague-Dawley rat at 2 mg/kg, iv measured after 24 hrs by LC-MS/MS analysis; assay type: ADME, organism-based; conditions: in vivo

Sequence of CYP3A4 (P08684 whole entry): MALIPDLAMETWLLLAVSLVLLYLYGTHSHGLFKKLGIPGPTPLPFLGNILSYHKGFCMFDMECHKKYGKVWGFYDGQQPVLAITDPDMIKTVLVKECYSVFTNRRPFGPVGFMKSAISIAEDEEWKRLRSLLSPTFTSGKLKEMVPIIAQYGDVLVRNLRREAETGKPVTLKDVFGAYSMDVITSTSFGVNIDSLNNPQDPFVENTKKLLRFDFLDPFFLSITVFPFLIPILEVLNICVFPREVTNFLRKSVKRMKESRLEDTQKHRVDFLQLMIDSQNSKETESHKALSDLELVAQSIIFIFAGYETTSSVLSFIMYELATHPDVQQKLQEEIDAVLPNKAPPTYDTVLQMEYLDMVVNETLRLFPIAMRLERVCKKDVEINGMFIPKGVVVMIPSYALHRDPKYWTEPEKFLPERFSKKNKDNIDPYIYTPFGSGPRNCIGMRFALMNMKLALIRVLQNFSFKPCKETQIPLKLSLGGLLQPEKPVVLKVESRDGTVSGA
Sequence of Cellular tumor antigen p53 (Homo sapiens) (P04637 whole entry, looked up): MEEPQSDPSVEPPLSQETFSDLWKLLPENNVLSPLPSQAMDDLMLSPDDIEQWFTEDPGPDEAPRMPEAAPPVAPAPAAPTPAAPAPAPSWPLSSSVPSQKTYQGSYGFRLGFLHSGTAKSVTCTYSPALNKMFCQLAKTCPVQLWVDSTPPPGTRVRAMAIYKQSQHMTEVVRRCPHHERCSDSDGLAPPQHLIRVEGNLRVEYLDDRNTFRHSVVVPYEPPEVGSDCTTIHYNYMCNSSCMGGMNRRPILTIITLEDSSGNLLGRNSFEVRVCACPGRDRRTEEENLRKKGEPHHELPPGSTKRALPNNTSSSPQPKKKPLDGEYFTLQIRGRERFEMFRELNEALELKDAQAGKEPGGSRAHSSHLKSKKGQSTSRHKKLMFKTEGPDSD
Sequence of Cyclin-dependent kinase 9 (Homo sapiens) (P50750 whole entry): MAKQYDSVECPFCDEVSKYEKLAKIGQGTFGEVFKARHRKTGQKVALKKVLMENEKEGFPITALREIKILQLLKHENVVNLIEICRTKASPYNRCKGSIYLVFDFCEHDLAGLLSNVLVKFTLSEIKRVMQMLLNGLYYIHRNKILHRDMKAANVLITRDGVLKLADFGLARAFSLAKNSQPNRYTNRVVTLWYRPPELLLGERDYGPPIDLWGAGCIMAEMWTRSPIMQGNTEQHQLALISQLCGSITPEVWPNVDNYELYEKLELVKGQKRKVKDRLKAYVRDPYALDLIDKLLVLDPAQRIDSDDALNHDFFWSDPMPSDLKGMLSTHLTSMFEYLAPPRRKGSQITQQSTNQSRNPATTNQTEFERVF
Sequence of CYP2C9 (P11712 whole entry): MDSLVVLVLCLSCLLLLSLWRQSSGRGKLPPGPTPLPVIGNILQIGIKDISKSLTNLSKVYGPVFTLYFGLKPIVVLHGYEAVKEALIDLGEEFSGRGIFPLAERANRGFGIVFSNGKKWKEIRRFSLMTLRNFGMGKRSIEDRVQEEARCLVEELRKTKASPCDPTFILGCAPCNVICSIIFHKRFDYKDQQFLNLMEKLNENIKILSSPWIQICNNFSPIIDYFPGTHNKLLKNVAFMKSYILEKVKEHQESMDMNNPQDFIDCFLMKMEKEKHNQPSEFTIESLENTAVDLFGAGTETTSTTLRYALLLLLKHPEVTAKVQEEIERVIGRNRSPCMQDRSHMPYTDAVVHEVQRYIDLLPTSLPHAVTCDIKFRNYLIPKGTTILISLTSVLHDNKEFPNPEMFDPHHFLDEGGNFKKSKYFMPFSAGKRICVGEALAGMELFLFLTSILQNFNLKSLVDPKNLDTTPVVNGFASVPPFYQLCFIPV
Sequence of E3 ubiquitin-protein ligase Mdm2 (Homo sapiens) (Q00987 whole entry, looked up): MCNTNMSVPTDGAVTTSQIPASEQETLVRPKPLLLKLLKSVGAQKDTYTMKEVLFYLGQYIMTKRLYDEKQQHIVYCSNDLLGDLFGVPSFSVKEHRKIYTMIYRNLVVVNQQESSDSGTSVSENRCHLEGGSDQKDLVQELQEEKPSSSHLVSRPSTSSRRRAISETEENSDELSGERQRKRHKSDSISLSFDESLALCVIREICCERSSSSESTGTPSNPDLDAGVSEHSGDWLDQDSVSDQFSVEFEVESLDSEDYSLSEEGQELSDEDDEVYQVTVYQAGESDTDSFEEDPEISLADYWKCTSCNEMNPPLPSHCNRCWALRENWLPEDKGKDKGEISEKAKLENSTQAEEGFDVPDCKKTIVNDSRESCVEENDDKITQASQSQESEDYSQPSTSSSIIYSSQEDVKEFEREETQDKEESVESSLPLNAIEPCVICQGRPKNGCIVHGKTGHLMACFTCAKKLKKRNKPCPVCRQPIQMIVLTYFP
Sequence of CDK9/cyclin T1 (O60563 whole entry): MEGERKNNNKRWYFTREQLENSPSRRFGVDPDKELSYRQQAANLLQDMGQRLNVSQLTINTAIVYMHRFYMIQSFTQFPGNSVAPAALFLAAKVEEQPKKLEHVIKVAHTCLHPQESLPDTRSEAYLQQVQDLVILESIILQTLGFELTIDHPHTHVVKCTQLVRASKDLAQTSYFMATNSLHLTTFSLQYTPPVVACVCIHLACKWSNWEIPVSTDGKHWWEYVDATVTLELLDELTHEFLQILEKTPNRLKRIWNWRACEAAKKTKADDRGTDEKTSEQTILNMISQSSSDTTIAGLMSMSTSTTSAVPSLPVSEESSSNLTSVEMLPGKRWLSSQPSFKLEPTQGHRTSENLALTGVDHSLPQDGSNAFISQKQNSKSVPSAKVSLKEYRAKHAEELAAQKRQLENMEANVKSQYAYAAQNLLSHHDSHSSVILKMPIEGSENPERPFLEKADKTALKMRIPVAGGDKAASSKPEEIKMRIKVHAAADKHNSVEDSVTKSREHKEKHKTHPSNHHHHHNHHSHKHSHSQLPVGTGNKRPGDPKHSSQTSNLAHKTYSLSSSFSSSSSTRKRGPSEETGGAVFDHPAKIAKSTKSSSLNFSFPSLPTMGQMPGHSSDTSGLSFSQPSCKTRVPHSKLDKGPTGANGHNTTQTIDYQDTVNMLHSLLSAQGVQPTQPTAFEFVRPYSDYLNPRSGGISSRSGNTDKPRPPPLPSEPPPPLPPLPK
Sequence of CDK9/cyclin T1 (P50750 whole entry): as the sequence (P50750 whole entry) above
Sequence of CYP2C19 (P33261 whole entry): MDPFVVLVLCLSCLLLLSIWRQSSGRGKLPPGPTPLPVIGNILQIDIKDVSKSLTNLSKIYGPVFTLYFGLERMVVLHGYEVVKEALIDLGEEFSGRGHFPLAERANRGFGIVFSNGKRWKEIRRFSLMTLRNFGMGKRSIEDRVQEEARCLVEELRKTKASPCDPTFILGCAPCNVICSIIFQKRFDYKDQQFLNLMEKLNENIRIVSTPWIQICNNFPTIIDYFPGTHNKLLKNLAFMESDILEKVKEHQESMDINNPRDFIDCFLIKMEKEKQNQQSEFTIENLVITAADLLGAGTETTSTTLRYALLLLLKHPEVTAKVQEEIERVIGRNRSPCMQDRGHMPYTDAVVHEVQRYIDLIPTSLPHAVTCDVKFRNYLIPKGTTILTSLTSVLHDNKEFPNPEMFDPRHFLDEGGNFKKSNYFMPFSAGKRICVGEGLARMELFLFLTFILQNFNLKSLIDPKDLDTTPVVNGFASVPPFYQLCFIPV

- IC50 [1]: 1180 nM
- Vd [10]: 5.54 L/kg
- GI50 [11]: 150 nM
- Tmax [13]: 30 min
- inhibition [14]: Active
- Activity [15]: Active
- inhibition at 10 µM [17]: 15.9%
- inhibition at 10 µM [19]: 5.2%
- Activity [20]: Active
- AUC [22]: 900 ng·h/mL
- MRT inf [23]: 87 min
- inhibition at 10 µM [25]: 69.6%
- Kd [26]: 8870 nM
- fraction unbound at 2 h, 100 µM [28]: 0.006
- clearance [33]: 81.8 mL/min/kg
SMILES: CC(C)Oc1cc(F)ccc1-c1ccnc(NC(=O)Nc2cccc(C(=O)N3CCN(C)CC3)c2)c1
- Activity [2]: Active
- Activity [3]: Non-toxic
- Activity [4]: Dose-dependent-effect
- Activity [5]: Active
- Activity [6]: Active
- Activity [7]: Non-toxic
- Activity [8]: Active
- Activity [9]: Active
- Activity [12]: Active
- Activity [16]: Non-toxic
- Activity [18]: Non-toxic
- Activity [21]: Active
- Activity [24]: Non-toxic
- inhibition [27]: Active
- Activity [29]: Active
- Activity [30]: Active
- Activity [31]: Active
- Activity [32]: Active
